≈ marks a conversion by molar mass, not a printed value.
Legend:
Tobacco mosaic virus [1] = test: Antiviral activity against TMV assessed as inactivation effect by measuring inhibition rate at 0.5 mg/ml measured after 72 hrs relative to control; type: functional; design: scale not given: the % may be the effect or the level left
Tobacco mosaic virus [2] = test: Antiviral activity against TMV assessed as protection effect by measuring inhibition rate at 0.5 mg/ml measured after 72 hrs relative to control; type: functional; design: scale not given: the % may be the effect or the level left
Tobacco mosaic virus [3] = test: Antiviral activity against TMV assessed as curative effect by measuring inhibition rate at 0.5 mg/ml measured after 72 hrs relative to control; type: functional; design: scale not given: the % may be the effect or the level left
Staphylococcus aureus [4] = test: Antibacterial activity against Staphylococcus aureus ATCC 25923 assessed as reduction in bacterial growth incubated for 24 hrs by CLSI based Mueller-Hinton broth assay; type: functional
Staphylococcus aureus [5] = test: Antibacterial activity against methicillin-resistant Staphylococcus aureus 15012406 assessed as reduction in bacterial growth incubated for 24 hrs by CLSI based Mueller-Hinton broth assay; type: functional
Staphylococcus aureus [6] = test: Antibacterial activity against methicillin-resistant Staphylococcus aureus 15019301 assessed as reduction in bacterial growth incubated for 24 hrs by CLSI based Mueller-Hinton broth assay; type: functional
Mus musculus [7] = test: Antinociceptive activity in ip dosed mouse assessed as inhibition of acetic acid-induced abdominal constrictions by writhing test at 70 mg/ml relative to control; type: functional; design: scale not given: the % may be the effect or the level left
Mus musculus [8] = test: Anti-inflammatory activity in mouse model of xylene-induced auricle edema assessed as inhibition of ear swelling at 70 mg/ml, IG pre-treated for 1 hr followed by xylene addition and measured after 1 hr relative to control; type: functional; design: scale not given: the % may be the effect or the level left; conditions: time 2 hrs
Plasmodium falciparum = test: Antiplasmodial activity against Plasmodium falciparum W2 infected in human erythrocytes assessed as reduction in parasite growth incubated for 48 hrs by YOYO-1 dye based flow cytometric analysis; type: functional, organism-based; conditions: W2, 48 h
HCT-116 = test: Anticancer activity against human HCT-116 cells assessed as reduction in cell viability incubated for 72 hrs by MTT assay; type: functional, cell-based; conditions: HCT-116, 72 h
ES-2 = test: Anticancer activity against human ES2 cells assessed as reduction in cell viability incubated for 72 hrs by Alamar Blue assay; type: functional, cell-based; conditions: ES-2, 72 h
A549 = test: Anticancer activity against human A549 cells assessed as reduction in cell viability incubated for 72 hrs by Alamar Blue assay; type: functional, cell-based; conditions: A549, 72 h
HOS = test: Anticancer activity against human HOS cells assessed as reduction in cell viability incubated for 72 hrs by Alamar Blue assay; type: functional, cell-based
MDA-MB-231 = test: Anticancer activity against human MDA-MB-231 cells assessed as reduction in cell viability incubated for 72 hrs by Alamar Blue assay; type: functional, cell-based; conditions: MDA-MB-231, 72 h
A 172 = test: Anticancer activity against human A-172 cells assessed as reduction in cell viability incubated for 72 hrs by Alamar Blue assay; type: functional, cell-based; conditions: A 172, 72 h
HepG2 = test: Anticancer activity against human HepG2 cells assessed as reduction in cell viability incubated for 72 hrs by Alamar Blue assay; type: functional, cell-based; conditions: HepG2, 72 h
Staphylococcus aureus [9] = test: Antibacterial activity against methicillin-resistant Staphylococcus aureus 17045463 assessed as reduction in bacterial growth incubated for 24 hrs by CLSI based Mueller-Hinton broth assay; type: functional
Staphylococcus aureus [10] = test: Antibacterial activity against methicillin-resistant Staphylococcus aureus 18032913 assessed as reduction in bacterial growth incubated for 24 hrs by CLSI based Mueller-Hinton broth assay; type: functional
Diutina rugosa = test: Antimicrobial activity Candida rugosa DSM 2031 assessed as reduction in microbial growth incubated for 24 hrs by broth micro dilution method; type: functional
Candida parapsilosis = test: Antimicrobial activity Candida parapsilosis ATCC 22019 assessed as reduction in microbial growth incubated for 24 hrs by broth micro dilution method; type: functional; conditions: Lodderomyces parapsilosis
Candida albicans = test: Antimicrobial activity against Candida albicans ATCC 10231 assessed as reduction in microbial growth incubated for 24 hrs by broth micro dilution method; type: functional
Candida tropicalis = test: Antimicrobial activity against Candida tropicalis ATCC 18803 assessed as reduction in microbial growth incubated for 24 hrs by broth micro dilution method; type: functional
Cryptococcus neoformans = test: Antimicrobial activity Cryptococcus neoformans ATCC 28952 assessed as reduction in microbial growth incubated for 24 hrs by broth micro dilution method; type: functional
[11] = Antimicrobial activity Cryptococcus gattii VGI ATCC 2601 assessed as reduction in microbial growth incubated for 24 hrs by broth micro dilution method; type: functional
[12] = target: Voltage-gated inwardly rectifying potassium channel KCNH2 (Homo sapiens, UniProt Q12809); test: Inhibition of hERG; type: toxicity
Sequence of Voltage-gated inwardly rectifying potassium channel KCNH2 (Q12809 whole entry): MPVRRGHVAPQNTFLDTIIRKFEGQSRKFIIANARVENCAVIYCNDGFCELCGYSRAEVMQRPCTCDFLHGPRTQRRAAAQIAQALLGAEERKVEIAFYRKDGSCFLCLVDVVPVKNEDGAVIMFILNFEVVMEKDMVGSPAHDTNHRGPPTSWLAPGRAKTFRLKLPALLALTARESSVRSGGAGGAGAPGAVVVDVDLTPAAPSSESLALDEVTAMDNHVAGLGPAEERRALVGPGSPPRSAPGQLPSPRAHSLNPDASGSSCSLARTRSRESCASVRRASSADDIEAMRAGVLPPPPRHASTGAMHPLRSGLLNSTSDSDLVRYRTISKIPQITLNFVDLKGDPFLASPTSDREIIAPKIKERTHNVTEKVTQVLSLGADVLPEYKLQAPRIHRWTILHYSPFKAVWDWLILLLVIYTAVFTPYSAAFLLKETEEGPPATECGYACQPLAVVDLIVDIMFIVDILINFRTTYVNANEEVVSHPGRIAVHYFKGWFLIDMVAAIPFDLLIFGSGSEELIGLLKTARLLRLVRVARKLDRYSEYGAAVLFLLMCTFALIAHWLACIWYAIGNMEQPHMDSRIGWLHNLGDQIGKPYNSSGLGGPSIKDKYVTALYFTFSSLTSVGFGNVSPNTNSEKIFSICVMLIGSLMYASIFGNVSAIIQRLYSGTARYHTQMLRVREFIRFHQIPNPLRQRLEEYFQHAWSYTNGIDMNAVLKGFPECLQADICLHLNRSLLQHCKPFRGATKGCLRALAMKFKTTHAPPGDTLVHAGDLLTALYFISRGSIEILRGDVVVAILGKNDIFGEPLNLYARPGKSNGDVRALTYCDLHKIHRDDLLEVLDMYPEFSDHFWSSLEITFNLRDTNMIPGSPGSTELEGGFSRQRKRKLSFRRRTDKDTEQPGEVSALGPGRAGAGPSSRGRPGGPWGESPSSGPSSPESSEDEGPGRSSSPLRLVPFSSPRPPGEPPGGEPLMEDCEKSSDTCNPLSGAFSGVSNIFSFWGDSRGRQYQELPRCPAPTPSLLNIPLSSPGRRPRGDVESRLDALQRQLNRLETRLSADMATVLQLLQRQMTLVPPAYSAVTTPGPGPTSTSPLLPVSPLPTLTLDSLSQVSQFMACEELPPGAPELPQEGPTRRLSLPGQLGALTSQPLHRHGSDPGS

CC1(C)O[C@H]2CC(=O)OC[C@]23[C@H]2CC[C@@]4(C)[C@H](c5ccoc5)OC(=O)[C@H]5O[C@]54[C@]2(C)OC(=O)C[C@@H]13
Activity (Tobacco mosaic virus [1]): 44.8% | Activity (Tobacco mosaic virus [2]): 23.6% | Activity (Tobacco mosaic virus [3]): 13.1%

C[C@H]1CCC[C@@H]([C@@H](O)c2ccoc2)C1=O
MIC50 (Staphylococcus aureus [4]): 512 µg/mL (≈ 2460 µM) | MIC50 (Staphylococcus aureus [5]): 512 µg/mL (≈ 2460 µM) | MIC50 (Staphylococcus aureus [6]): 512 µg/mL (≈ 2460 µM)

CC1(C)O[C@H]2CC(=O)OC[C@@]23[C@H]1C[C@H](NC(=O)CCN1CCOCC1)[C@@]1(C)C2=CC(=O)O[C@@H](c4ccoc4)[C@]2(C)CC[C@@H]13.Cl
Activity (Mus musculus [7]): 54.3% | Activity (Mus musculus [8]): 24.04%

COC(=O)C[C@H](OC(C)=O)[C@]1(C)[C@H]2CC[C@@]3(C)[C@H](c4ccoc4)OC(=O)[C@H]4O[C@]43[C@]2(C)[C@H](OC(C)=O)C[C@H]1C(C)(C)O
IC50 (Plasmodium falciparum): 18.3 µM

CC1(C)O[C@H]2CC(=O)OC[C@]23[C@H]2CC[C@@]4(C)[C@H](c5ccoc5)OC(=O)[C@H]5O[C@]54[C@]2(C)C(=O)C[C@@H]13 [LIMONIN]
Activity (Tobacco mosaic virus [1]): 41.9% | Activity (Tobacco mosaic virus [2]): 27.4% | Activity (Tobacco mosaic virus [3]): 5.8%

C#CCO[C@H]1C=C(C(C)C)[C@]2(CCCC(=O)O2)[C@H]2CC[C@]3(C)C(=CC(=O)O[C@H]3c3ccoc3)[C@]12C
IC50 (HCT-116): 1.6 µM | IC50 (ES-2): 0.58 µM | IC50 (A549): 2.59 µM | IC50 (HOS): 1.61 µM | IC50 (MDA-MB-231): 0.64 µM | IC50 (A 172): 0.78 µM | IC50 (HepG2): 7.1 µM

CC1(C)OC(=O)C=C[C@]2(C)[C@H]3CC[C@@]4(C)[C@H](c5ccoc5)OC(=O)[C@H]5O[C@]54[C@]3(C)C(=O)C[C@@H]12 [OBACUNONE]
Activity (Tobacco mosaic virus [1]): 35.2% | Activity (Tobacco mosaic virus [2]): 21.5% | Activity (Tobacco mosaic virus [3]): 7.7%

CC(=O)O[C@H](c1ccoc1)[C@@H]1CCC[C@H](C)C1=O
MIC50 (Staphylococcus aureus [4]): 12 µg/mL (≈ 47.9 µM) | MIC50 (Staphylococcus aureus [5]): 128 µg/mL (≈ 511 µM) | MIC50 (Staphylococcus aureus [6]): 64 µg/mL (≈ 256 µM) | MIC50 (Staphylococcus aureus [9]): 128 µg/mL (≈ 511 µM) | MIC50 (Staphylococcus aureus [10]): 64 µg/mL (≈ 256 µM)

C[C@H]1CCC[C@@H]([C@H](O)c2ccoc2)C1=O
MIC50 (Staphylococcus aureus [4]): 512 µg/mL (≈ 2460 µM) | MIC50 (Staphylococcus aureus [5]): 512 µg/mL (≈ 2460 µM) | MIC50 (Staphylococcus aureus [6]): 512 µg/mL (≈ 2460 µM)

CC1(C)O[C@H]2CC(=O)OC[C@]23[C@H]2CC[C@@]4(C)[C@H](c5ccoc5)OC(=O)[C@H]5O[C@]54[C@]2(C)[C@@H](NC(=O)CCN2CCOCC2)C[C@@H]13.Cl
Activity (Mus musculus [7]): 57.35% | Activity (Mus musculus [8]): 58.15%

CC1(C)O[C@@H](CC(=O)NCc2cn(Cc3ccc(Br)cc3)nn2)[C@@]2(CO)[C@H]1CC(=O)[C@@]1(C)C3=CC(=O)O[C@@H](c4ccoc4)[C@]3(C)CC[C@@H]12
MIC (Diutina rugosa): 34 µM | MIC (Candida parapsilosis): 34 µM | MIC (Candida albicans): 34 µM | MIC (Candida tropicalis): 34 µM | MIC (Cryptococcus neoformans): 34 µM | MIC [11]: 34 µM

CC1(C)O[C@H]2CC(=O)OC[C@]23[C@H]2CC[C@@]4(C)[C@H](c5coc(C(=O)CCCCN6CCOCC6)c5)OC(=O)[C@H]5O[C@]54[C@]2(C)C(=O)C[C@@H]13
IC50 [12]: > 100 µM

CC(=O)O[C@H]1CC(=O)OC(C)(C)[C@@H]2C[C@@H](OC(C)=O)[C@]3(C)[C@H](CC[C@@]4(C)[C@H](c5ccoc5)OC(=O)[C@H]5O[C@@]534)[C@@]12C
IC50 (Plasmodium falciparum): 16.5 µM

CC1(C)O[C@H]2CC(=O)OC[C@]23[C@H]2CC[C@]4(C)C(=CC(=O)O[C@H]4c4coc(C(=O)CCl)c4)[C@]2(C)OC(=O)C[C@@H]13
IC50 (HCT-116): 3.28 µM | IC50 (ES-2): 3.65 µM | IC50 (A549): 7.62 µM | IC50 (HOS): 3.88 µM | IC50 (MDA-MB-231): 5.53 µM | IC50 (A 172): 1.71 µM | IC50 (HepG2): 8.45 µM

CC(=O)O[C@@H](c1ccoc1)[C@@H]1CCC[C@H](C)C1=O
MIC50 (Staphylococcus aureus [4]): 12 µg/mL (≈ 47.9 µM) | MIC50 (Staphylococcus aureus [5]): 128 µg/mL (≈ 511 µM) | MIC50 (Staphylococcus aureus [6]): 64 µg/mL (≈ 256 µM) | MIC50 (Staphylococcus aureus [9]): 128 µg/mL (≈ 511 µM) | MIC50 (Staphylococcus aureus [10]): 64 µg/mL (≈ 256 µM)

CC1(C)O[C@H]2CC(=O)OC[C@]23[C@H]2CC[C@@]4(C)[C@H](c5ccoc5)OC(=O)[C@H]5O[C@]54[C@]2(C)[C@@H](OC(=O)C/C=C/c2ccccc2)C[C@@H]13
Activity (Tobacco mosaic virus [1]): 65.7% | Activity (Tobacco mosaic virus [2]): 29.3% | Activity (Tobacco mosaic virus [3]): 41.7%

CC1(C)OC(=O)C=C[C@]2(C)[C@H]3CC[C@@]4(C)[C@H](c5ccoc5)OC(=O)[C@H]5O[C@]54[C@]3(C)OC(=O)C[C@@H]12
Activity (Tobacco mosaic virus [1]): 56.5% | Activity (Tobacco mosaic virus [2]): 30% | Activity (Tobacco mosaic virus [3]): 17.5%

From ChEMBL document CHEMBL5625218, “An overview of limonoid synthetic derivatives as promising bioactive molecules” (Eur J Med Chem, 2023)
